Test results: US20250136997A1, “COMPOSITIONS FOR SEQUESTERING ISOAMYL AMINE AND METHODS OF USE THEREFOR” (University of Louisville Research Foundation, Inc., priority 2023, published 2025)

Legend:
[1] = tested on: IAA binding oligo of the S100A8 promoter (hairpin); assay: Nucleic acid unwinding assay (helicase); type: biochemical
Description: Nucleic acid unwinding assay. Helicase reactions were carried out in triplicate in 96-well plates. To prepare DNA substrate, 20 μM single strand DNA (WT: 5′-Cy3-[…]-BHQ1-3′ (SEQ ID NO: 5); Mutant: 5′-Cy3-[…]-BHQ1-3′ (SEQ ID NO: 6; Eurofins Genomics LLC, KY) were denatured at 95° C. for 5 minutes in the reaction buffer (25 mM Tris HCl pH 7.5, 100 mM NaCl, 15 mM MgCl2, 1 mM DTT, 0.1 mg/ml BSA) and cooled slowly to room temperature before add IAA (100 nM) and/or helicase ([…]). After ATP (2 mM) was added to initiate the helicase activity, the fluorescence value was recorded using a microplate reader with an excitation wavelength of 550 and an emission wavelength of 570. BHQ: black-hole quencher.

[2] = tested on: S100A8; assay: Western blot of S100A8 in p53 KO microglia after IAA; type: cell-based, mouse; details: p53 KO with CRISPR-Cas9, IAA 12 h
Description: Western blotting. Cells were treated as indicated in individual Figure legends and whole cell extracts (WCE) were prepared in the radioimmunoprecipitation assay (RIPA) buffer (Sigma) with addition of protease and phosphatase inhibitors (Roche). Proteins were separated by 10% SDS-PAGE and transferred to polyvinylidene difluoride (PVDF) membranes (Bio-Rad Laboratories, Inc., Hercules, CA). Dual color precision protein MW markers (BioRad) were separated in parallel. Antibodies were purchased as follows: cleaved-caspase-3 (ab214430), cleaved PARP (ab203467) and GAPDH (ab9657, Abcam) from Abcam; S100A8 (47310) and S100a9 (72590) from Cell Signaling; and Ltf (GTX81085) from GeneTex. The secondary antibodies conjugated to Fluors Alex-488 (A32723) or Alex-594 (A11012) were purchased from Invitrogen (Eugene, OR). The bands were visualized on the Odyssey Imager (LiCor Inc, Lincoln, NE).

[3] = T-maze spontaneous alternation (TMSA) test; type: in vivo, mouse; details: IAA to young mice
Description: T-maze test. To evaluate the cognitive impairment without requirement of full motor function, modified T-Maze test (Deacon and Rawlins, 2006) was carried out. Mice were gently handled, habituated to the T-Maze apparatus, and subjected to food deprivation. On the forced alternation sample trial (T1), the animals were exposed to the T-maze with one of the arms opened and rewarded with pellet at end of the arm. The opposite arm was blocked by a guillotine door. The mouse was allowed to explore the open arm and consume the reward. Ten consecutive trials were performed, then the mouse was removed. After 30 min, retrieval testing (T2) was performed. The blocked arm was opened and the mouse was placed in the same start position. […] If the mouse entered the same arm as in T1, the mouse was confined for 10 seconds and this response was marked as an “Error”. Each mouse was subjected to 10 consecutive runs. Forced Alternation [%] was defined as the percent of mice first entering the novel arm during T2. […] The three- or four-day intersession interval is used to assess recognition memory performances.

[4] = Single-strand gel shift (SSGS) assay; type: binding; details: oligos (2 μM) incubated with IAA (10 μM), 15% PAGE
Description: Single-strand gel shift (SSGS) assay. To identify the metabolite binding site of S100A8, we synthesized a series of oligonucleotides (oligos) (Eurofins Genomics LLC, KY) specific to the response putative IAA binding site at the promoter region of S100A8. The oligos ([…]) were incubated with […] of IAA at 37° C. for 30 minutes following electrophoresis on a 15% native PAGE without SDS in 0.5×TBE buffer. The oligos were stained with ethidium bromide ([…]) and visualized under ultraviolet (UV) light.
Given induction of bacterial metabolite IAA causes the degeneration of microglia by elevation of S100A8 at both the transcription and protein level, we hypothesized that IAA might directly target the promoter of S100A8 and regulate the expression of S100A8. Studying the interaction of metabolites, particularly small molecules, with nucleic acid is challenging due to a lack of appropriate tags for the metabolites. Because of this challenge, we developed a strategy raising the possibility to investigate the interaction of small molecules and nucleic acid.
To test our hypothesis, we first synthesized short single-DNA strains (around 60 mer length each) whose sequences spanned the promoter of S100A8 (FIG. 13A and Table 5). The site and sequence of the promoter and transcription start site (TSS) were determined according to the entire mRNA (Accession #NC_000069.7 (90,576,378 . . . 90,577,341)) and genomic sequence (Accession #L76381) from the NCBI nucleic acid database (FIG. 13A). These DNA oligos (2 μM) were incubated with IAA (10 μM) following native PAGE analysis (FIG. 4A). […] To define the accurate binding site of IAA, we synthesized 10 mer length DNA oligos covering the sequence of S100p1 (Table 5). Unfortunately, the 10 mer length oligo lost the conformational mobility shift in PAGE (FIG. 13C). We then tested the mobility shift with 20 mer oligos. […]

Molecule | activity of helicase unwinding of the self-complementary binding sequence ([1]; WT Cy3/BHQ1 oligo, with helicase) | unwinding of mutant sequence ([1]; mutant Cy3/BHQ1 oligo) | S100A8 induced by IAA (western blot) [2] | deficit of spatial learning in the TMSA (percentage of correct choices) ([3]; phage to aged mice) | percentage of alternating choices (exploring new arm), TMSA ([3]; phage^TSD-27 to aged mice) | mobility shift on native PAGE after incubation with IAA [4]
CC(C)CCN [IAA, isoamylamine] | enhanced | attenuated | p53 dependent | induced the deficit | reduced young mice exploring the new path | 
S100p1-G: CTGTGGGCAG CTGGCCAAGC (SEQ ID NO: 8), S100A8 promoter −57 . . . −38 (DNA CTGTGGGCAGCTGGCCAAGC; chemistry not given here) |  |  |  |  |  | displayed a shift
